According to BindingDB's records for doi:10.1021/jm040129+ (The Johns Hopkins University, 2004):

Molecular target: T1, 1,25-dihydroxyvitamin D(3) 24-hydroxylase, mitochondrial (Homo sapiens, UniProt Q07973)
T1 sequence (Q07973 whole entry): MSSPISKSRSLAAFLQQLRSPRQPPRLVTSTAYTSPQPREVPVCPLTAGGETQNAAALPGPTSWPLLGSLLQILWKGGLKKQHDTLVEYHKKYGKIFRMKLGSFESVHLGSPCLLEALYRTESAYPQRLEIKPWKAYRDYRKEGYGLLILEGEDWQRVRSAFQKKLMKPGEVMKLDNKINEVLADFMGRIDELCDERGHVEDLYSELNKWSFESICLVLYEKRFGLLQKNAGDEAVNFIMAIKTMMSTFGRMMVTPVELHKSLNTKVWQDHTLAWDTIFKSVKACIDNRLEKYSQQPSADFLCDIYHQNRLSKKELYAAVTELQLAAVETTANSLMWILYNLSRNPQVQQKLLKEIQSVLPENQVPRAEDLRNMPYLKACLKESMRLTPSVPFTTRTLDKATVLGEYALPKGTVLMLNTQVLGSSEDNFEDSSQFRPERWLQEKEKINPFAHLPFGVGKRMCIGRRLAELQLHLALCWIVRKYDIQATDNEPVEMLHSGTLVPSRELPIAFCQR
Assay: Inhibition of human CYP24 hydroxylase expressed in V79 cells

**Q.** For C=C1/C(=C\C=C2/CCC[C@]3(C)[C@@H](C(C)=CC(F)=S(N)(=O)c4ccccc4)CC[C@@H]23)C[C@@H](O)C[C@@H]1O (stereo partly specified), which IC50 is on record?
**A.** > 1000 nM
